“Also recorded” adds a separate entry of the source. Read-outs that look alike come from different tables or passages of the source.
Columns and labels:
[1] = Antagonist concentrations in blood (plasma) following oral administration; assay type: in vivo; conditions: cynomolgus monkeys
Protocol: Measurement of Antagonist Concentrations in Blood Following Oral Administration
Antagonists dissolved in ethanol (5 to 75 mg/ml) and added to 20 mM NaHCO3 pH 8.0. The resulting suspension (7 to 13 ml containing 10% ethanol) was administered by gavage (between 1 and 30 mg/kg) to cynomolgous monkeys (3 to 4 kg body weight). After different times (between 0.5 and 24 h as well as just prior to administration of antagonist) blood samples (1-2 ml) were taken and centrifuged to obtain plasma, which was frozen and transported to the laboratory as soon as the experiment was complete. Upon arrival at the laboratory, the plasma samples were thawed and the internal standards (1.5 μg), along with 2 volumes of MeOH, were added, the mixture vortexed, and then stored at −80° C. until analysis. The internal standards were structural analogs containing different numbers of methylene groups. Prior to analysis the plasma samples were warmed to room temperature, the above plasma samples containing MeOH were centrifuged and water was added to the supernatant to give a final concentration of 30%. The samples were then applied to a C18 SepPak cartridge (Waters Associates) that had previously been washed with MeOH followed by water (Powell, W. S., Prostaglandins, 1980. 20: p. 947-957). The extracts were analyzed by reversed-phase HPLC combined with automated precolumn extraction (Powell, W. S., Anal. Biochem., 1987. 164: p. 117-131). The stationary phase for the separation was a Novapak C18 column (4 μm particle size; 3.9×150 mm). The amounts of antagonists were determined on the basis of UV absorbance by comparing the peak area for the antagonist in question with that for the corresponding internal standard and correcting for any difference in extinction coefficient.
To examine the PK profiles of compounds V197 and V230 these compounds were administered to cynomolgus monkeys by oral gavage at a dose of 30 mg/kg. Plasma levels were measured following solid-phase extraction by reversed-phase high performance liquid chromatography (HPLC) after 0.5, 1, 2, 4, 8, 18, and 24 h using appropriate internal standards.

[2] = target: T1, OXE receptor (Homo sapiens, UniProt Q8TDS5); assay: Calcium mobilization in human granulocytes (inhibition of 5-oxo-ETE-induced calcium mobilization); assay type: cell-based; conditions: for times less potent than compound V230 in blocking 5-oxo-ETE-induced calcium mobilization in neutrophils: relative to V230
T1 construct: Human granulocytes (≥95% neutrophils) are prepared from whole blood; endogenous in cells; host or cells: human granulocytes (≥95% neutrophils) from whole blood
T1 sequence (Q8TDS5 whole entry): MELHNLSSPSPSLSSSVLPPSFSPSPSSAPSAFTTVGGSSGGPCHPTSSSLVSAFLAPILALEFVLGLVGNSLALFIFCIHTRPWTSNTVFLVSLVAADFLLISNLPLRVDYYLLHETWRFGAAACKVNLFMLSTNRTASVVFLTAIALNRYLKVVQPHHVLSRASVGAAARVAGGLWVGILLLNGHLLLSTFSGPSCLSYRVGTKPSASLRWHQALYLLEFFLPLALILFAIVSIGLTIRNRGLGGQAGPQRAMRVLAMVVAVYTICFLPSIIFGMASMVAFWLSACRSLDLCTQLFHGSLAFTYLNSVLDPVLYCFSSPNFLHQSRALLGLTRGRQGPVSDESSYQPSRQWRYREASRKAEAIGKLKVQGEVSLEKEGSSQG
Protocol: Evaluation of Antagonist Activity: Calcium Mobilization in Human Granulocytes
Human granulocytes (≥95% neutrophils) are prepared from whole blood using Dextran 500 to remove red blood cells, followed by centrifugation over Ficoll-Paque to remove mononuclear cells and hypotonic lysis of any remaining red blood cells. After centrifugation the granulocytes are suspended in Ca^++/Mg^++-free phosphate-buffered saline (PBS^−). Granulocytes (10^7 cells/ml) are incubated with the acetoxymethyl ester of indo-1 (1 μM) for 30 min, followed by washing twice with PBS^− and resuspension in the same medium to obtain a final cell concentration of 3.22×10^6 cells/ml. Five minutes prior to commencing data acquisition, Ca^++ and Mg^++ are added to give final concentrations of 1.8 and 1 mM, respectively. Calcium measurements are performed at 37° C. using a spectrofluorometer equipped with a temperature-controlled cuvette holder and a magnetic stirrer. The excitation and emission wavelengths are 331 nm and 410 nm, respectively. Following stabilization of the baseline, fluorescence is measured for 1 min, prior to the addition of either vehicle or various concentrations of a potential 5-oxo-ETE antagonist. Two min later, 5-oxo-ETE (10 nM) is added, followed 1 min later by digitonin (final concentration 0.1%). Data acquisition is terminated after a further 0.5 min. Fmax is determined from fluorescence measurements after the addition of digitonin, whereas Fmin is determined after determination of autofluorescence as described in the literature. A dissociation constant of 250 nM for the indo-1/Ca^++ complex is used to calculate [Ca^++]i. The % inhibition of 5-oxo-ETE-induced calcium mobilization by the antagonist is calculated as follows: Inhibition (%)=(1−(Caant/Ca^++veh))×100 where Caant is the increase in cytosolic calcium levels induced by 5-oxo-ETE (10 nM) following the addition of a potential antagonist, whereas Caveh is the response induced by 5-oxo-ETE following addition of vehicle alone.

[3] = Metabolism of OXE antagonists by monkey liver microsomes; assay type: in vitro ADME, cynomolgous monkey
Protocol: Metabolism of OXE Antagonists by Monkey Microsomes
Microsomes (catalog number MKMC-PL) from cynomolgous monkey liver were obtained from Life Technologies. Antagonists (100 μM) were incubated for various times with liver microsomes (0.5 mg protein/ml) in PBS in the presence of NADPH (2 mM). After various times aliquots (0.1 ml) were removed and placed in a tube containing 0.36 ml ice-cold methanol. After addition of 0.74 ml of water along with 1 μg of an appropriate internal standard the samples were stored at −80° C. until analysis by reversed-phase HPLC.

[4] = system: 5-oxo-ETE-induced dermal eosinophil infiltration; assay: Inhibition of 5-oxo-ETE-induced dermal eosinophil infiltration; assay type: in vivo; conditions: Rhesus monkeys, biopsy at 24 h
Protocol: Inhibition of 5-Oxo-ETE-Induced Dermal Eosinophil Infiltration
Rhesus monkeys (n=6) were injected intradermally with 5-oxo-ETE (5 μg) or vehicle. Compound 50 (5 or 10 mg/kg) or vehicle were administered by oral gavage both 1 h before and 7 h after injection of 5-oxo-ETE.
Skin biopsies were taken 24 h after administration of 5-oxo-ETE and sections from paraffin-embedded tissue were stained for eosinophil major basic protein, followed by counting of eosinophils.

[5] = target: T1, OXE receptor; conditions: previously described values for V230 and its enantiomers; read-out: IC50, previously disclosed/reported; cited from earlier work
[6] = oral gavage 30 mg/kg, over 24 h
[7] = inhibition of calcium mobilization induced by 5-oxo-ETE (10 nM) in human granulocytes, bracketed figure in cell = n, read-out: IC50
[8] = 5-oxo-ETE-induced calcium mobilization
[9] = oral gavage 30 mg/kg, over 24 h, 30 mg/kg

Q: For `CC(CC(=O)O)CC(=O)c1c(CCCCCCc2ccccc2)n(C)c2ccc(Cl)cc12` (racemic) [Compound 15, 5-(5-chloro-1-methyl-2-(6-phenylhexyl)-1H-indol-3-yl)-3-methyl-5-oxopentanoic acid], which “course of plasma levels / PK profile in words” value [1, 6] is on record?
A: The value was “declined much more slowly than the S-enantiomer”.

Q: And the IC50 [2, 7]?
A: The IC50 was 0.18 nM.

Q: Which “course of plasma levels / PK profile in words” value [1, 6] does the source give for `C[C@@H](CC(=O)O)CC(=O)c1c(CCCCCCc2ccccc2)n(C)c2ccc(Cl)cc12` (single isomer, unassigned) [Compound 61] here?
A: Its value is “higher than those of the S-enantiomer and dropped much more slowly”.

Q: What about the IC50 [2, 7] of the same compound?
A: Its IC50 is 23 ± 2 nM.

Q: Which results are given for `C[C@H](CC(=O)O)CC(=O)c1c(CCCCCCc2ccccc2)n(C)c2ccc(Cl)cc12` [Compound 46, (S)-5-(5-chloro-1-methyl-2-(6-phenylhexyl)-1H-indol-3-yl)-3-methyl-5-oxopentanoic acid]?
A: difference in unmetabolized:metabolized ratio versus V230 ([3]; 4 h, in favor of 46): 4 fold; course of plasma levels / PK profile in words [1, 6]: fell much more slowly; plasma levels relative to V230 at later time points [1, 6]: at least 10 times higher; IC50 [2, 7]: 0.1 nM

Q: For `C[C@H](CC(=O)O)CC(=O)c1c(C(O)CCCCCc2ccccc2)n(C)c2ccc(Cl)cc12` (stereo partly shown) [Compound 46M], which “time to peak / maximal plasma levels” value ([1]; oral gavage 30 mg/kg (46M after administration of 46)) is on record?
A: The value was 8 to 12 h.

Q: And the “antagonist activity / potency in words” value [2, 8]?
A: The value was 5-oxo-ETE-induced calcium mobilization inhibitors.

Q: And the IC50 [2, 7]?
A: The IC50 was 0.8 ± 0.3 nM.

Q: With `C[C@H](CC(=O)O)CC(=O)c1c(CCCCCCc2cccc(Cl)c2)n(C)c2ccc(Cl)cc12` [Compound 50, (S)-5-(5-chloro-2-(6-(3-chlorophenyl)hexyl)-1-methyl-1H-indol-3-yl)-3-methyl-5-oxopentanoic acid] as the compound, how does the 5-Oxo-ETE-induced eosinophil infiltration ([4]; 5 mg/kg oral gavage 1 h before and 7 h after 5-oxo-ETE, p<0.005) read?
A: Its 5-Oxo-ETE-induced eosinophil infiltration is “significantly inhibited”.

Q: And the 5-Oxo-ETE-induced eosinophil infiltration ([4]; 10 mg/kg oral gavage 1 h before and 7 h after 5-oxo-ETE, p<0.02)?
A: The 5-Oxo-ETE-induced eosinophil infiltration was “significantly inhibited”.

Q: What about the IC50 ([2]; 5-oxo-ETE-induced calcium mobilization, read-out: potency (IC50) in the picomolar range) of the same compound?
A: Its IC50 is roughly 0.008 nM.

Q: What about the IC50 [2, 7] of the same compound?
A: Its IC50 is 0.0081 ± 0.0013 nM.

Q: Which “course of plasma levels / PK profile in words” value [1, 9] does the source give for `CC(C)CCCCc1c(C(=O)CC(C)CC(=O)O)c2cc(Cl)ccc2n1C` (stereo not shown) [Compound V197, reference compound] here?
A: The value was “dropped quite rapidly after 1 h; also recorded: inferior to that of compound V230”.

Q: And the IC50 [2, 7]?
A: The IC50 was 20 nM.

Q: What does the source list for `CCCCCCc1c(C(=O)C[C@H](C)CC(=O)O)c2cc(Cl)ccc2n1C` [Compound V230, reference compound]?
A: extent of metabolism by microsomes in words ([3]; NADPH, up to 4 h, compared with 46): much greater; extent of metabolism in plasma in words ([1]; oral gavage 30 mg/kg, after 8 h, compared with 46): much greater; course of plasma levels / PK profile in words [1, 9]: dropped quite rapidly after 1 h; also recorded: rapid decline; IC50 [5]: 26 ± 4 nM

Q: Which “antagonist activity / potency in words” value [2, 8] does the source give for `CCCCCC(O)c1c(C(=O)CC(C)CC(=O)O)c2cc(Cl)ccc2n1C` (stereo not shown) [Compound V230M, reference compound] here?
A: Its value is “significantly reduced IC50”.

Q: What about the IC50 [2, 7] of the same compound?
A: Its IC50 is 3300 ± 1100 nM.

Q: For `CC(O)CCCCc1c(C(=O)CC(C)CC(=O)O)c2cc(Cl)ccc2n1C` (stereo not shown) [Met a V230 (ω-1)OH, reference compound], which IC50 [2, 7] is on record?
A: The IC50 was 1600 ± 400 nM.

Q: And the “times less potent than compound V230 in blocking 5-oxo-ETE-induced calcium mobilization in neutrophils” value [2]?
A: The value was “about 100 times”.

Q: What does the source list for `CC(=O)CCCCc1c(C(=O)CC(C)CC(=O)O)c2cc(Cl)ccc2n1C` (stereo not shown) [Met b V230 (ω-1)oxo, reference compound]?
A: IC50 [2, 7]: 1900 ± 500 nM; times less potent than compound V230 in blocking 5-oxo-ETE-induced calcium mobilization in neutrophils [2]: about 100 times

Q: Which IC50 [2, 7] does the source give for `CC(CC(=O)O)CC(=O)c1c(CCCCCCO)n(C)c2ccc(Cl)cc12` (stereo not shown) [V230 ω-OH, reference compound] here?
A: The IC50 was 260 ± 30 nM.
